For assay [1], the target named is T1, USP5 (Homo sapiens, UniProt P45974).
T1 construct: UBD, residues 171-290
T1 sequence (P45974 1-858): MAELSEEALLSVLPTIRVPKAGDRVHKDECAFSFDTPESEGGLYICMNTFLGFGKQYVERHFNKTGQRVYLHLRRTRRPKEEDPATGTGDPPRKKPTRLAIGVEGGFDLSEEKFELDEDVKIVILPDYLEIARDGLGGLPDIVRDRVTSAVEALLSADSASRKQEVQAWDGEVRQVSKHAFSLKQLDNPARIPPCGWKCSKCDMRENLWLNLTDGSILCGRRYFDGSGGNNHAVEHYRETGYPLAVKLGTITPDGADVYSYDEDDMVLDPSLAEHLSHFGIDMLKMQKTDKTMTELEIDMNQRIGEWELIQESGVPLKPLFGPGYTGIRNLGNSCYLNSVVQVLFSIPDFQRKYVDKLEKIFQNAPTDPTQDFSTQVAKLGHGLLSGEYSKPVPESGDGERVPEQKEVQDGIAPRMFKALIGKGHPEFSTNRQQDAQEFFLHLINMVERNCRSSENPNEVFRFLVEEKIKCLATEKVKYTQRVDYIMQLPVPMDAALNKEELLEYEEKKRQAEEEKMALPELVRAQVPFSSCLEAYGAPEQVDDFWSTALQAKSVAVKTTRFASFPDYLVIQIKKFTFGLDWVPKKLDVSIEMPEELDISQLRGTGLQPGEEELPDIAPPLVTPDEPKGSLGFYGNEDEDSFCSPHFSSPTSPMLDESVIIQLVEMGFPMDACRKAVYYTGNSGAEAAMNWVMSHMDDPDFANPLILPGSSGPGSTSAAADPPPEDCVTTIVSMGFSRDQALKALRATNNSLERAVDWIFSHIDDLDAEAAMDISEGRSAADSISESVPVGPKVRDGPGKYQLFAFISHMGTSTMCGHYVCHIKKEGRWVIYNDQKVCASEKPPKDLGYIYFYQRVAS
Briefly: biochemical. Set-up: SPR, steady-state binding to immobilised biotinylated UBD proteins.

Assay [2] concerns the target T2, BRAP (Homo sapiens, UniProt Q7Z569).
T2 construct: UBD, residues 304-390
T2 sequence (Q7Z569 1-592): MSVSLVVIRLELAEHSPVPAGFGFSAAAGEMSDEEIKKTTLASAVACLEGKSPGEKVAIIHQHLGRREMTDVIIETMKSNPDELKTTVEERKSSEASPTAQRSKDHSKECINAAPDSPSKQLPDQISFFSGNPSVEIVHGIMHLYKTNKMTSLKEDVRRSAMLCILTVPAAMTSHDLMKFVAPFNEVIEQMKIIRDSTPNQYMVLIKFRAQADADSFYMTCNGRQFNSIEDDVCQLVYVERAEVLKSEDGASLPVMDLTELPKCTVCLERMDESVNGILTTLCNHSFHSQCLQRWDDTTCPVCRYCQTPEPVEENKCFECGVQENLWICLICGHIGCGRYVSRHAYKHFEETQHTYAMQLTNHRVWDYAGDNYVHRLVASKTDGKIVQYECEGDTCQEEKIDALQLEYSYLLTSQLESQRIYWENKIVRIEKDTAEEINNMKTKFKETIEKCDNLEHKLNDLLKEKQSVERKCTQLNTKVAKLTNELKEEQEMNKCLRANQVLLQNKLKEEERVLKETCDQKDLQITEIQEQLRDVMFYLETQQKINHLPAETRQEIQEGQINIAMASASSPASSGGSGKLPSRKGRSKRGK
The assay is described as follows: biochemical. Details: SPR, steady-state binding to immobilised biotinylated UBD proteins.

For assay [3], the target named is T3, USP33 (Homo sapiens, UniProt Q8TEY7).
T3 construct: UBD, residues 29-134
T3 sequence (Q8TEY7 1-942): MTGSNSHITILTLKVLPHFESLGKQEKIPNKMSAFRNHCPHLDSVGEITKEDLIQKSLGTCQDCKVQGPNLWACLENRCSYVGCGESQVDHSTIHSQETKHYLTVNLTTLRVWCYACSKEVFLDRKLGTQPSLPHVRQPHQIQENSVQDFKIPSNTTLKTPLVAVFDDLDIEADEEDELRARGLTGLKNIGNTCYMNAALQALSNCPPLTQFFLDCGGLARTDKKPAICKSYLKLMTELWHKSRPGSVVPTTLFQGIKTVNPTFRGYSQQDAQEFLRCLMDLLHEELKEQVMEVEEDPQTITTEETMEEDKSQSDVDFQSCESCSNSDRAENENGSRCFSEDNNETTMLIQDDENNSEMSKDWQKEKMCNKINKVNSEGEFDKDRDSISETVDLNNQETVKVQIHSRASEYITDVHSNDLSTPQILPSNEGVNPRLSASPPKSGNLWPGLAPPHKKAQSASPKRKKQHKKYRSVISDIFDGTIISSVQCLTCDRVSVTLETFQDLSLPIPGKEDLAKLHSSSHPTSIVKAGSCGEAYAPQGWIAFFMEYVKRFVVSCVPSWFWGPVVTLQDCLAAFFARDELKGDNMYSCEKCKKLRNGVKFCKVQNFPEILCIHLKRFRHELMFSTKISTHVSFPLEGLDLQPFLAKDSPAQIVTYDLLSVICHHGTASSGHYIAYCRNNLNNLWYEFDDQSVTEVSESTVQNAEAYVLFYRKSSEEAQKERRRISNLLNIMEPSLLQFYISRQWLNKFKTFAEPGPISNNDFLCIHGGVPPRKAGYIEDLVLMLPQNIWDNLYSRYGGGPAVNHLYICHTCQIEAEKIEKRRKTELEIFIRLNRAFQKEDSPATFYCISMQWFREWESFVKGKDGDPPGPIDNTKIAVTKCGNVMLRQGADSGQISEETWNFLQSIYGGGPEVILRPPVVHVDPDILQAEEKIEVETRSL
Briefly: biochemical. Set-up: SPR, steady-state binding to immobilised biotinylated UBD proteins.

Assay [4] deals with T4, HDAC6-UBD (HDAC6 1109-1215) (Homo sapiens, UniProt Q9UBN7).
T4 sequence (Q9UBN7 1109-1215): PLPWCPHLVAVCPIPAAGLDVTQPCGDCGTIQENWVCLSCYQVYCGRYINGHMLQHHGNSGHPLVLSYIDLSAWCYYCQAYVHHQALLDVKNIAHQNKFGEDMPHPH
The assay is described as follows: SPR, steady state. Format: binding. A general note: Surface plasmon resonance follows binding to a sensor surface in real time, without labels.

[5] abbreviates: read-out: Probe KD (nM) SGC-UBD1031.
Where [6] appears, read: read-out: Negative Control KD (nM) SGC-UBD1031N.

Read-outs that look alike come from different tables or passages of the source.

Take `C[C@H](NC(=O)Cn1c(CCC(=O)O)nc2c(Cl)cccc2c1=O)c1c(F)cccc1F` [compound 15, (S)-3-(8-chloro-3-(2-((1-(2,6-difluorophenyl)ethyl)amino)-2-oxoethyl)-4-oxo-3,4-dihydroquinazolin-2-yl)propanoic acid]: the Kd was 2600 ± 1400 nM in assay [1] (setting [5]), > 10000 nM in assay [2] (setting [5]), > 10000 nM in assay [3] (setting [5]) and 0.016 µM in assay [4].

For `C[C@@H](NC(=O)Cn1c(CCC(=O)O)nc2c(Cl)cccc2c1=O)c1c(F)cccc1F` [compound 16, (R)-3-(8-chloro-3-(2-((1-(2,6-difluorophenyl)ethyl)amino)-2-oxoethyl)-4-oxo-3,4-dihydroquinazolin-2-yl)propanoic acid], the dissociation constant (Kd) in assay [1] (setting [6]) is > 10000 nM; in assay [2] (setting [6]), > 10000 nM; in assay [3] (setting [6]) it was > 10000 nM; in assay [4], > 5 µM.

What is called Kd is the concentration at which binding is half-saturated.

For the origin of these results see article doi:10.1101/2025.10.23.684218v2, “Development of a dual chemical probe for the USP16 and HDAC6 zinc-finger ubiquitin-binding domain” (biorxiv, 2025).
